Laboratory results reported in US8729087B2, “Compositions and methods for inhibition of the JAK pathway” (Rigel Pharmaceuticals, Inc., priority 2006, dated 2014).
Like-named read-outs stand apart in the source and are kept apart here.

Experiments:
[1] = tested on: Ramos B-cell line stimulated with IL-4; test: Assay for Ramos B-Cell Line Stimulated with IL-4 (CD23 upregulation, FACS); format: cell-based, human; details: read-out: Example 2 (IC50, Ramos B-cell line stimulated with IL-4)
Source text: One means of assaying for such inhibition is detection of the effect of the 2,4-pyrimidinediamine compounds on the upregulation of downstream gene products. In the Ramos/IL4 assay, B-cells are stimulated with the cytokine Interleukin-4 (IL-4) leading to the activation of the JAK/Stat pathway through phosphorylation of the JAK family kinases, JAK1 and JAK3, which in turn phosphorylate and activate the transcription factor Stat-6. […] To study the effect of inhibitors (e.g., the 2,4-substituted pyrimindinediamine compounds described herein) on the JAK1 and JAK3 kinases, human Ramos B cells are stimulated with human IL-4. Twenty to 24 hours post stimulation, cells are stained for upregulation of CD23 and analyzed using flow cytometry (FACS). […] An exemplary assay of this type is described in greater detail in Example 2.
B-cells stimulated with cytokine Interleukin-4 (IL-4) activate the JAK/Stat pathway through phosphorylation of the JAK family kinases, JAK-1 and JAK-3, which in turn phosphorylate and activate the transcription factor Stat-6. […] To study the effect of inhibitors on the JAK family kinases, human Ramos B cells are stimulated with human IL-4.
The Ramos B-cell line was acquired from ATCC (ATCC Catalog No. CRL-1596). The cells were cultured in RPMI 1640 (Cellgro, MediaTech, Inc., Herndon, Va., Cat No. 10-040-CM) with 10% fetal bovine serum (FBS), heat inactivated (JRH Biosciences, Inc, Lenexa, Kans., Cat No. 12106-500M) according to ATCC propagation protocol. Cells were maintained at a density of 3.5×10^5. The day before the experiment, Ramos B-cells were diluted to 3.5×10^5 cells/mL to ensure that they were in a logarithmic growth phase.
Cells were spun down and suspended in RPMI with 5% serum. 5×10^4 cells were used per point in a 96-well tissue culture plate. Cells were pre-incubated with compound or DMSO (Sigma-Aldrich, St. Louis, Mo., Cat No. D2650) vehicle control for 1 hour in a 37° C. incubator.
Cells were then stimulated with IL-4 (Peprotech Inc., Rocky Hill, N.J., Cat No. 200-04) for a final concentration of 50 units/mL for 20-24 hours. Cells were then spun down and stained with anti-CD23-PE (BD Pharmingen, San Diego, Calif., Cat No. 555711) and analyzed by FACS. Detection was performed using a BD LSR I System Flow Cytometer, purchased from Becton Dickinson Biosciences of San Jose, Calif.

Primary human T-cells = test: Primary Human T-Cell Proliferation Assay Stimulated with IL-2 (CellTiter-Glo); format: cell-based; details: read-out: Example 3 (IC50, primary human T-cell proliferation stimulated with IL-2)
Source text: The activity of the active compounds of the invention may further be characterized by assaying the effect of the 2,4-pyrimidinediamine compounds described herein on the proliferative response of primary human T-cells. In this assay, primary human T-cells derived from peripheral blood and pre-activated through stimulation of the T-cell receptor and CD28, proliferate in culture in response to the cytokine Interleukin-2 (IL-2). This proliferative response is dependent on the activation of JAK1 and JAK3 tyrosine kinases, which phosphorylate and activate the transcription factor Stat-5. The primary human T-cells are incubated with the 2,4-pyrimidinediamine compounds in the presence of IL-2 for 72 hours and at the assay endpoint intracellular ATP concentrations are measured to assess cell viability. A reduction in cell proliferation compared to control conditions is indicative of inhibition of the JAK kinase pathway. An exemplary assay of this type is described in greater detail in Example 3.
Primary human T-cells derived from peripheral blood and pre-activated through stimulation of the T-cell receptor and CD28, proliferate in vitro in response to the cytokine Interleukin-2 (IL-2). This proliferative response is dependent on the activation of JAK-1 and JAK-3 tyrosine kinases, which phosphorylate and activate the transcription factor Stat-5.
Human primary T cells were prepared as follows. Whole blood was obtained from a healthy volunteer, mixed 1:1 with PBS, layered on to Ficoll Hypaque (Amersham Pharmacia Biotech, Piscataway, N.J., Catalog #17-1440-03) in 2:1 blood/PBS:ficoll ratio and centrifuged for 30 min at 4° C. at 1750 rpm. The lymphocytes at the serum: ficoll interface were recovered and washed twice with 5 volumes of PBS. The cells were resuspended in Yssel's medium (Gemini Bio-products, Woodland, Calif., Catalog #400-103) containing 40 U/mL recombinant IL2 (R and D Systems, Minneapolis, Minn., Catalog #202-IL (20 μg)) and seeded into a flask pre-coated with 1 μg/mL anti-CD3 (BD Pharmingen, San Diego, Calif., Catalog #555336) and […] (Immunotech, Beckman Coulter of Brea Calif., Catalog #IM1376). The primary T-cells were stimulated for 3-4 days, then transferred to a fresh flask and maintained in RPMI with 10% FBS and 40 U/mL IL-2.
Primary T-cells were washed twice with PBS to remove the IL-2 and resuspended in Yssel's medium at 2×10^6 cells/mL. 50 μL of cell suspension containing 80 U/mL IL-2 was added to each well of a flat bottom 96 well black plate. For the unstimulated control, IL-2 was omitted from the last column on the plate. Compounds were serially diluted in dimethyl sulfoxide (DMSO, 99.7% pure, cell culture tested, Sigma-Aldrich, St. Louis, Mo., Catalog No. D2650) from 5 mM in 3-fold dilutions, and then diluted 1:250 in Yssel's medium. 50 μL of 2× compound was added per well in duplicate and the cells were allowed to proliferate for 72 hours at 37° C.
Proliferation was measured using CellTiter-Glo® Luminescent Cell Viability Assay (Promega), which determines the number of viable cells in culture based on quantitation of the ATP present, as an indicator of metabolically active cells. The substrate was thawed and allowed to come to room temperature. After mixing the Cell Titer-Glo reagent and diluent together, 100 μL was added to each well. The plates were mixed on an orbital shaker for two minutes to induce lysis and incubated at room temperature for an additional ten minutes to allow the signal to equilibrate. Detection was performed using a Wallac Victor2 1420 multilabel counter purchased from Perkin Elmer, Shelton, Conn.

[2] = IL-4 50 units/mL, 20-24 hours, anti-CD23-PE staining, FACS
[3] = IL-2, 72 hours, ATP quantitation (CellTiter-Glo)
[4] = Homo sapiens, Ramos, IL-4 50 units/mL, 20-24 hours, anti-CD23-PE staining, FACS
[5] = Homo sapiens, T-cell, 72 h, IL-2, 72 hours, ATP quantitation (CellTiter-Glo)

Row | Compound | IC50 [1, 2] | IC50 (Primary human T-cells; [3]) | also measured
1 | CCS(=O)(=O)NCc1ccc(Nc2nc(Nc3ccc(CS(=O)(=O)NC)cc3)ncc2C)cc1 [Compound I-2, N4-(4-ethylsulfonylaminomethyl)phenyl-5-methyl-N2-(4-methylaminosulfonylmethyl)phenyl-2,4-pyrimidinediamine] | 70.3 nM | 79.6 nM | –
2 | CN1C(=O)C(C)(C)Oc2cc(Nc3nc(Nc4cccc(CS(N)(=O)=O)c4)ncc3F)cnc21 [IV-2, N2-[3-(Aminosulfonylmethylene)phenyl]-N4-[2,2-dimethyl-3-oxo-4-methyl-pyrid[1,4]oxazin-7-yl]-5-fluoro-2,4-pyrimidinediamine] | 170 nM | 881 nM | –
3 | CC1(C)Oc2cc(Nc3nc(Nc4cccc(CS(N)(=O)=O)c4)ncc3F)cnc2NC1=O [IV-1, N2-[3-(Aminosulfonylmethylene)phenyl]-N4-[2,2-dimethyl-3-oxo-4H-pyrid[1,4]oxazin-7-yl]-5-fluoro-2,4-pyrimidinediamine] | 133 nM | 482 nM | –
4 | Cc1cnc(Nc2ccc(S(N)(=O)=O)cc2)nc1Nc1ccc2c(c1)C(NS(C)(=O)=O)CC2 (racemic) [VI-2, (+/−)-N2-(4-Aminosulfonylphenyl)-5-methyl-N4-[1-(methylsulfonyl)aminoindan-6-yl]-2,4-pyrimidinediamine] | – | – | IC50 [1, 4]: 279 nM; IC50 (Primary human T-cells; [5]): 1020 nM
5 | N#CCOc1ccc(Nc2nc(Nc3cccc(CS(N)(=O)=O)c3)ncc2F)cc1 [Compound I-1, N2-[3-(Aminosulfonylmethylene)phenyl]-5-fluoro-N4-(4-cyanomethyleneoxyphenyl)-2,4-pyrimidinediamine] | 48.9 nM | 93 nM | –
6 | CNS(=O)(=O)Cc1ccc(Nc2ncc(F)c(Nc3ccc(CNS(=O)(=O)C4CC4)cc3)n2)cc1 [Compound I-8, N4-(4-cyclopropylsulfonylaminomethyl)phenyl-5-fluoro-N2-(4-methylaminosulfonylmethyl)phenyl-2,4-pyrimidinediamine] | 147 nM | 229 nM | –
7 | NS(=O)(=O)N1CCc2ccc(Nc3ncc(F)c(Nc4ccc(CNS(=O)(=O)C5CC5)cc4)n3)cc2C1 [III-2, N2-(2-Aminosulfonyl-1,2,3,4-tetrahydroisoquinolin-7-yl)-N4-[4-(cyclopropylsulfonylaminomethyl)phenyl]-5-fluoro-2,4-pyrimidinediamine] | – | – | IC50 [1, 4]: 27.4 nM; IC50 (Primary human T-cells; [5]): 16.6 nM
8 | Cc1cnc(Nc2ccc(CCNS(=O)(=O)C3CC3)cc2)nc1Nc1ccc(CCNS(=O)(=O)C2CC2)cc1 [II-2, N2,N4-bis[4-(2-cyclopropylsulfonylamino)ethyl]phenyl-5-methyl-2,4-pyrimidine diamine] | 202 nM | 317 nM | –
9 | CCS(=O)(=O)NCc1ccc(Nc2nc(Nc3ccc(CS(=O)(=O)NC)cc3)ncc2F)cc1 [Compound I-10, N4-(4-ethylsulfonylaminomethyl)phenyl-5-fluoro-N2-(4-methylaminosulfonylmethyl)phenyl-2,4-pyrimidinediamine] | 285 nM | 424 nM | –
10 | C#CCOc1ccc(Nc2nc(Nc3ccc4c(c3)CN(S(N)(=O)=O)CC4)ncc2F)cc1 [III-4, N2-(2-Aminosulfonyl-1,2,3,4-tetrahydroisoquinolin-7-yl)-N4-(4-(prop-2-ynyloxy)phenyl)-5-fluoro-2,4-pyrimidinediamine] | – | – | IC50 ([1]; Homo sapiens, Ramos): 101 nM; IC50 (Primary human T-cells; Homo sapiens, T-cell, 72 h): 129 nM
11 | Cc1cnc(Nc2ccc(CNS(=O)(=O)C3CC3)cc2)nc1Nc1ccc(CNS(=O)(=O)C2CC2)cc1 [II-1, N2,N4-bis(4-cyclopropylsulfonylaminomethyl)phenyl-5-methyl-2,4-pyrimidinediamine] | 45.2 nM | 26 nM | –
12 | COc1cc(Nc2nc(Nc3ccc4c(c3)CN(S(N)(=O)=O)CC4)ncc2F)ccc1Cl [III-1, N2-(2-Aminosulfonyl-1,2,3,4-tetrahydroisoquinolin-7-yl)-N4-(4-chloro-3-methoxyphenyl)-5-fluoro-2,4-pyrimidinediamine] | – | – | IC50 [1, 4]: 129 nM; IC50 (Primary human T-cells; [5]): 279 nM
